Experimental data from patent US10821115B2, “Compounds that inhibit Mcl-1 protein” (priority 2017, dated 2020).
Where two headings read alike, the source gives them in different places.

How the values were obtained:
[1] = system: human multiple myeloma cell line, OPM-2; assay: Cell viability assay (OPM-2 10 FBS), CellTiter-Glo; format: cell-based
In short: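 IC50 values come from 4-parameter logistic fits of luminescence signals reflecting cell viability. Treatment lasted 16 h at 37 °C in complete medium with 10% FBS, starting from 3000 cells/well.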

[2] = target: recombinant human Mcl-1 (residues 171-327) / Bim interaction (Homo sapiens (Human), UniProt Q07820); assay: biochemical; format: binding; conditions: read-out: Mcl-1 HTRF IC50
Chain of recombinant human Mcl-1 (residues 171-327) / Bim interaction (Q07820 171-327): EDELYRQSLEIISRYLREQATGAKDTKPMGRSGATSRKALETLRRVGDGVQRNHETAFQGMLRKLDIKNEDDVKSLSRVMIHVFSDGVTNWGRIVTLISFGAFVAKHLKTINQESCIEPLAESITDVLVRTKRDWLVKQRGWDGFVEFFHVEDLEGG

[3] = Homo sapiens, OPM-2, 16 h, read-out: OPM-2 10% FBS IC50 IP, OPM-2 cells, 10% FBS, 16 h, CellTiter-Glo
[4] = TR-FRET, Mcl-1(171-327) / biotin-Bim (51-76)
[5] = read-out: OPM-2 10% FBS IC50 IP, OPM-2 cells, 10% FBS, 16 h, CellTiter-Glo

Compound	IC50 [1, 3]	IC50 [2, 4]	IC50 [1, 5]	IC50 [2]
C[C@@H]1[C@@H](C)CCC[C@](CO)(OCCN2CCOCC2)[C@@H]2CC[C@H]2CN2C[C@@]3(CCCc4cc(Cl)ccc43)COc3ccc(cc32)C(=O)NS1(=O)=O [Example 100280, (1S,3′R,6′R,7′S,11′S,12′R)-6-chloro-7′-(hydroxymethyl)-11′,12′-dimethyl-7′-(2-(4-morpholinyl)ethoxy)-3,4-dihydro-2H,15′H-spiro[naphthalene-1,22′-[20]oxa[13]thia[1,14]diazatetracyclo [14.7.2.0~3,6~.0~19,24~]pentacosa[16,18,24]trien]-15′-one 13′,13′-dioxide]	305 nM	0.368 nM	–	–
C[C@@H]1[C@@H](C)C/C=C/[C@@](O)(CC(=O)N(C)CCN(C)C)[C@@H]2CC[C@H]2CN2C[C@@]3(CCCc4cc(Cl)ccc43)COc3ccc(cc32)C(=O)NS1(=O)=O [Example 100281, 2-((1S,3′R,6′R,7′S,8′E,11′S,12′R)-6-chloro-7′-hydroxy-11′,12′-dimethyl-13′,13′-dioxido-15′-oxo-3,4-dihydro-2H-spiro[naphthalene-1,22′-[20]oxa[13]thia[1,14]diazatetracyclo [14.7.2.0~3,6~.0~19,24~]pentacosa[8,16,18,24]tetraen]-7′-yl)-N-(2-(dimethylamino)ethyl)-N-methylacetamide]	–	0.117 nM	352 nM	–
C[C@@H]1[C@@H](C)C/C=C/[C@@](O)(CC(=O)N(C)CCN(C)C)[C@@H]2CC[C@H]2CN2C[C@@]3(CCCc4cc(Cl)ccc43)COc3ccc(cc32)C(=O)NS1(=O)=O [Example 100282, 2-((1S,3′R,6′R,7′S,8′E,11′S,12′R)-6-chloro-7′-hydroxy-11′,12′-dimethyl-13′,13′-dioxido-15′-oxo-3,4-dihydro-2H-spiro[naphthalene-1,22′-[20]oxa[13]thia[1,14]diazatetracyclo [14.7.2.0~3,6~.0~19,24~]pentacosa[8,16,18,24]tetraen]-7′-yl)-N-(2-(dimethylamino)ethyl)-N-methylacetamide]	–	0.268 nM	1280 nM	–
C[C@@H]1[C@@H](C)CCC[C@@](O)(COS(C)(=O)=O)[C@@H]2CC[C@H]2CN2C[C@@]3(CCCc4cc(Cl)ccc43)COc3ccc(cc32)C(=O)NS1(=O)=O [Example 100283, ((1S,3′R,6′R,7′S,11′S,12′R)-6-chloro-7′-hydroxy-11′,12′-dimethyl-13′,13′-dioxido-15′-oxo-3,4-dihydro-2H-spiro[naphthalene-1,22′-[20]oxa[13]thia[1,14]diazatetracyclo [14.7.2.0~3,6~.0~19,24~]pentacosa[16,18,24]trien]-7′-yl)methyl methanesulfonate]	–	–	806 nM	0.143 nM
C[C@@H]1[C@@H](C)CCC[C@](CO)(OCCN2CCOCC2)[C@@H]2CC[C@H]2CN2C[C@@]3(CCCc4cc(Cl)ccc43)COc3ccc(cc32)C(=O)NS1(=O)=O [Example 100284, (1S,3′R,6′R,7′S,11′S,12′R)-6-chloro-7′-(hydroxymethyl)-11′,12′-dimethyl-7′-(2-(4-morpholinyl)ethoxy)-3,4-dihydro-2H,15′H-spiro[naphthalene-1,22′-[20]oxa[13]thia[1,14]diazatetracyclo [14.7.2.0~3,6~.0~19,24~]pentacosa[16,18,24]trien]-15′-one 13′,13′-dioxide]	–	0.285 nM	396 nM	–
CO[C@@H](C(=O)N(C)C)[C@]1(O)/C=C/C[C@H](C)[C@@H](C)S(=O)(=O)NC(=O)c2ccc3c(c2)N(C[C@@H]2CC[C@H]21)C[C@@]1(CCCc2cc(Cl)ccc21)CO3 [Example 100285, (2R)-2-((1S,3′R,6′R,7′S,8′E,11′S,12′R)-6-chloro-7′-hydroxy-11′,12′-dimethyl-13′,13′-dioxido-15′-oxo-3,4-dihydro-2H-spiro[naphthalene-1,22′-[20]oxa[13]thia[1,14]diazatetracyclo [14.7.2.0~3,6~.0~19,24~]pentacosa[8,16,18,24]tetraen]-7′-yl)-2-methoxy-N,N-dimethylethanamide]	642 nM	0.241 nM	–	–
CO[C@@H](C(=O)N(C)C)[C@@]1(O)/C=C/C[C@H](C)[C@@H](C)S(=O)(=O)NC(=O)c2ccc3c(c2)N(C[C@@H]2CC[C@H]21)C[C@@]1(CCCc2cc(Cl)ccc21)CO3 [Example 100286, (2R)-2-((1S,3′R,6′R,7′R,8′E,11′S,12′R)-6-chloro-7′-hydroxy-11′,12′-dimethyl-13′,13′-dioxido-15′-oxo-3,4-dihydro-2H-spiro[naphthalene-1,22′-[20]oxa[13]thia[1,14]diazatetracyclo [14.7.2.0~3,6~.0~19,24~]pentacosa[8,16,18,24]tetraen]-7′-yl)-2-methoxy-N,N-dimethylethanamide]	1580 nM	0.471 nM	–	–
COC(=O)C[C@@]1(O)/C=C/C[C@H](C)[C@@H](C)S(=O)(=O)NC(=O)c2ccc3c(c2)N(C[C@@H]2CC[C@H]21)C[C@@]1(CCCc2cc(Cl)ccc21)CO3 [Example 100287, methyl ((1S,3′R,6′R,7′R,8′E,11′S,12′R)-6-chloro-7′-hydroxy-11′,12′-dimethyl-13′,13′-dioxido-15′-oxo-3,4-dihydro-2H-spiro[naphthalene-1,22′-[20]oxa[13]thia[1,14]diazatetracyclo [14.7.2.0~3,6~.0~19,24~]pentacosa[8,16,18,24]tetraen]-7′-yl)acetate]	1870 nM	0.494 nM	–	–
COC(=O)C[C@]1(O)/C=C/C[C@H](C)[C@@H](C)S(=O)(=O)NC(=O)c2ccc3c(c2)N(C[C@@H]2CC[C@H]21)C[C@@]1(CCCc2cc(Cl)ccc21)CO3 [Example 100288, methyl ((1S,3′R,6′R,7′S,8′E,11′S,12′R)-6-chloro-7′-hydroxy-11′,12′-dimethyl-13′,13′-dioxido-15′-oxo-3,4-dihydro-2H-spiro[naphthalene-1,22′-[20]oxa[13]thia[1,14]diazatetracyclo [14.7.2.0~3,6~.0~19,24~]pentacosa[8,16,18,24]tetraen]-7′-yl)acetate]	89 nM	0.103 nM	–	–
C[C@@H]1[C@@H](C)C/C=C/[C@@](O)([C@@H](O)C(=O)N(C)C)[C@@H]2CC[C@H]2CN2C[C@@]3(CCCc4cc(Cl)ccc43)COc3ccc(cc32)C(=O)NS1(=O)=O [Example 100289, (2R)-2-((1S,3′R,6′R,7′S,8′E,11′S,12′R)-6-chloro-7′-hydroxy-11′,12′-dimethyl-13′,13′-dioxido-15′-oxo-3,4-dihydro-2H-spiro[naphthalene-1,22′-[20]oxa[13]thia[1,14]diazatetracyclo [14.7.2.0~3,6~.0~19,24~]pentacosa[8,16,18,24]tetraen]-7′-yl)-2-hydroxy-N,N-dimethylethanamide]	3960 nM	0.878 nM	–	–
C[C@@H]1[C@@H](C)C/C=C/[C@](O)([C@H](O)C(=O)N(C)C)[C@@H]2CC[C@H]2CN2C[C@@]3(CCCc4cc(Cl)ccc43)COc3ccc(cc32)C(=O)NS1(=O)=O [Example 100290, (2S)-2-((1S,3′R,6′R,7′R,8′E,11′S,12′R)-6-chloro-7′-hydroxy-11′,12′-dimethyl-13′,13′-dioxido-15′-oxo-3,4-dihydro-2H-spiro[naphthalene-1,22′-[20]oxa[13]thia[1,14]diazatetracyclo [14.7.2.0~3,6~.0~19,24~]pentacosa[8,16,18,24]tetraen]-7′-yl)-2-hydroxy-N,N-dimethylethanamide]	259 nM	0.116 nM	–	–
C[C@@H]1[C@@H](C)C/C=C/[C@@](O)(C=O)[C@@H]2CC[C@H]2CN2C[C@@]3(CCCc4cc(Cl)ccc43)COc3ccc(cc32)C(=O)NS1(=O)=O [Example 100291, (1S,3′R,6′R,7′S,8′E,11′S,12′R)-6-chloro-7′-hydroxy-11′,12′-dimethyl-15′-oxo-3,4-dihydro-2H-spiro[naphthalene-1,22′-[20]oxa[13]thia[1,14]diazatetracyclo [14.7.2.0~3,6~.0~19,24~]pentacosa[8,16,18,24]tetraene]-7′-carbaldehyde 13′,13′-dioxide]	281 nM	0.137 nM	–	–
C[C@@H]1[C@@H](C)C/C=C/[C@](O)(CC(=O)N2CCC2)[C@@H]2CC[C@H]2CN2C[C@@]3(CCCc4cc(Cl)ccc43)COc3ccc(cc32)C(=O)NS1(=O)=O [Example 100292, (1S,3′R,6′R,7′R,8′E,11′S,12′R)-7′-(2-(1-azetidinyl)-2-oxoethyl)-6-chloro-7′-hydroxy-11′,12′-dimethyl-3,4-dihydro-2H,15′H-spiro[naphthalene-1,22′-[20]oxa[13]thia[1,14]diazatetracyclo [14.7.2.0~3,6~.0~19,24~]pentacosa[8,16,18,24]tetraen]-15′-one 13′,13′-dioxide]	672 nM	0.115 nM	–	–
C[C@@H]1[C@@H](C)C/C=C/[C@@](O)(C#CCN(C)C)[C@@H]2CC[C@H]2CN2C[C@@]3(CCCc4cc(Cl)ccc43)COc3ccc(cc32)C(=O)NS1(=O)=O [Example 100294, (1S,3′R,6′R,7′S,8′E,11′S,12′R)-6-chloro-7′-(3-(dimethylamino)-1-propyn-1-yl)-7′-hydroxy-11′,12′-dimethyl-3,4-dihydro-2H,15′H-spiro[naphthalene-1,22′-[20]oxa[13]thia[1,14]diazatetracyclo [14.7.2.0~3,6~.0~19,24~]pentacosa[8,16,18,24]tetraen]-15′-one 13′,13′-dioxide]	–	0.118 nM	116 nM	–
C[C@@H]1[C@@H](C)C/C=C/[C@@](O)(C#CCN(C)C)[C@@H]2CC[C@H]2CN2C[C@@]3(CCCc4cc(Cl)ccc43)COc3ccc(cc32)C(=O)NS1(=O)=O [Example 100295, (1S,3′R,6′R,7′S,8′E,11′S,12′R)-6-chloro-7′-(3-(dimethylamino)-1-propyn-1-yl)-7′-hydroxy-11′,12′-dimethyl-3,4-dihydro-2H,15′H-spiro[naphthalene-1,22′-[20]oxa[13]thia[1,14]diazatetracyclo [14.7.2.0~3,6~.0~19,24~]pentacosa[8,16,18,24]tetraen]-15′-one 13′,13′-dioxide]	–	0.279 nM	302 nM	–
